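Where inhibition never reached the appropriate level, the endpoint shown equals the highest concentration tested. Otherwise, values were interpolated linearly from a five-concentration, 48-hour dose response in 96-well plates. TGI: total growth inhibition.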
Columns and labels:
Assay in all cases: NCI anticancer screen, dose series, 48 h
ACHN renal = test system: ACHN renal
CCRF-CEM leukemia = test system: CCRF-CEM leukemia
HOP-18 NSCLC = test system: HOP-18 NSCLC
LXFL 529 NSCLC = test system: LXFL 529 NSCLC
NCI-H460 lung = test system: NCI-H460 lung
SF-295 CNS = test system: SF-295 CNS
HCC-2998 colon = test system: HCC-2998 colon
KM20L2 colon = test system: KM20L2 colon
NCI-H226 lung = test system: NCI-H226 lung
NCI-H522 lung = test system: NCI-H522 lung
MDA-MB-231 breast = test system: MDA-MB-231 breast
MDA-N = test system: MDA-N

SMILES | TGI (ACHN renal) | TGI (CCRF-CEM leukemia) | TGI (HOP-18 NSCLC) | TGI (LXFL 529 NSCLC) | TGI (NCI-H460 lung) | TGI (SF-295 CNS) | TGI (HCC-2998 colon) | TGI (KM20L2 colon) | TGI (NCI-H226 lung) | TGI (NCI-H522 lung) | TGI (MDA-MB-231 breast) | TGI (MDA-N)
COc1nc2[nH]ccc2c(=O)n1C | > 100 µM | > 100 µM | > 100 µM | > 100 µM | > 100 µM | > 100 µM | – | – | – | – | – | –
Clc1ncnc2c1ncn2CCCCCCCCCCCCn1cnc2c(Cl)ncnc21 | 27.9 µM | > 100 µM | 58.3 µM | 17.5 µM | 31.8 µM | 28.8 µM | 19.5 µM | 30 µM | 24.5 µM | 2.87 µM | – | –
COC(=O)c1cccc(C(=O)OC)c1 | > 100 µM | > 100 µM | > 100 µM | > 100 µM | > 100 µM | > 100 µM | > 100 µM | – | > 100 µM | > 100 µM | – | –
CCOC12SC(=Nc3ccc(C)cc3)NN1C(=S)N(C)N=C2C (configuration not stated) | > 100 µM | > 100 µM | > 100 µM | > 100 µM | > 100 µM | > 100 µM | – | > 100 µM | > 100 µM | > 100 µM | – | –
CC(=O)Nc1ccc(-c2nnc(SCC(=O)Nc3ccccc3C)o2)cc1 | > 100 µM | > 100 µM | > 100 µM | > 100 µM | > 100 µM | > 100 µM | – | > 100 µM | > 100 µM | > 100 µM | – | –
c1ccc(Nc2nnc(-c3nsc4ccccc34)o2)cc1 | > 100 µM | > 100 µM | > 100 µM | > 100 µM | > 100 µM | – | > 100 µM | > 100 µM | – | – | – | –
COc1cc(C(SCc2ccccc2)SCc2ccccc2)ccc1O | > 10 µM | > 10 µM | – | – | > 10 µM | > 10 µM | > 10 µM | – | > 10 µM | > 10 µM | > 10 µM | > 10 µM
O=C(O)/C=C/C(=O)O | > 100 µM | > 100 µM | – | – | > 100 µM | > 100 µM | > 100 µM | – | > 100 µM | > 100 µM | > 100 µM | > 100 µM
CN(C)CCOC1(CC2CCCCC2)CCC(C(C)(C)C)CC1 (configuration not stated) | 20 µM | 7.62 µM | – | – | 9.65 µM | 12 µM | 11.7 µM | – | 21.2 µM | 8.49 µM | 13.5 µM | 13.1 µM
CCC(C)C1(O)OC2CC3(C)OC(=CC3=O)/C(C)=C\C3OC(=O)C1(C)C32 (configuration not stated) | 23.5 µM | > 100 µM | – | – | 57.9 µM | 60.9 µM | 30.1 µM | – | 63 µM | 14.3 µM | 41.2 µM | 21 µM
C[C@H](CCC1=NCCN1)[C@H]1CC[C@H]2[C@@H]3CC[C@@H]4C[C@H](O)CC[C@]4(C)[C@H]3C[C@H](O)[C@]12C | 30.5 µM | 30.4 µM | – | – | 31.2 µM | 29 µM | 27.6 µM | – | 31 µM | 19.3 µM | 34 µM | 31 µM
Nc1nc2cc(CNc3ccc(C(=O)NC(CCC(=O)O)C(=O)O)cc3)ccc2nc1-c1ccccc1 (configuration not stated) | > 10 µM | > 10 µM | – | – | > 10 µM | > 10 µM | > 10 µM | – | > 10 µM | > 10 µM | > 10 µM | > 10 µM
COc1ccc(/C=N/n2c(Cc3ccc(Cl)cc3)n[nH]c2=O)c(OC)c1 | > 100 µM | > 100 µM | – | – | > 100 µM | 42.9 µM | > 100 µM | – | 61.2 µM | 37.4 µM | > 100 µM | > 100 µM
CC(=O)NC1=C(C)C(=O)c2c(nc3n2CC[C@H]3OC(C)=O)C1=O | 9.34 µM | > 100 µM | – | – | 9.11 µM | 5.49 µM | 7.73 µM | – | 29.7 µM | 3.73 µM | 2.71 µM | 1.69 µM
CC(=N\N=C\c1ccccn1)/C(C)=N/N=C(C)/C(C)=N/N=C(C)/C(C)=N/N=C/c1ccccn1 | > 100 µM | > 100 µM | – | – | > 100 µM | > 100 µM | > 100 µM | – | > 100 µM | > 100 µM | > 100 µM | > 100 µM
CC(C)(C)c1cc(C2COC(=O)COCC(=O)OCCOCCOCCO2)cc(C(C)(C)C)c1O (configuration not stated) | 37.2 µM | > 100 µM | – | – | 98.5 µM | 58.5 µM | 27.9 µM | – | > 100 µM | > 100 µM | > 100 µM | 38.5 µM
CN1CCCCC(C(O)(c2ccccc2)c2ccccc2)C1=O (configuration not stated) | > 100 µM | > 100 µM | > 100 µM | > 100 µM | > 100 µM | > 100 µM | > 100 µM | > 100 µM | > 100 µM | > 100 µM | – | –
CCS(=O)(=O)c1c2cc(OC)ccc2nc2ccc(OC)cc12 | > 100 µM | > 100 µM | – | – | > 100 µM | > 100 µM | > 100 µM | – | > 100 µM | > 100 µM | > 100 µM | > 100 µM
CC[C@@H]1CC[C@@H]2[C@H](CC[C@]3(C)[C@@H](OS(=O)(=O)c4ccc(C)cc4)CC[C@@H]23)[C@H]1CO | > 100 µM | > 100 µM | – | – | > 100 µM | > 100 µM | > 100 µM | – | > 100 µM | > 100 µM | > 100 µM | > 100 µM
CCOC(=O)N(C)C1(c2ccccc2)CCN(CCCC(=O)c2ccc(F)cc2)CC1 | > 100 µM | > 100 µM | – | – | > 100 µM | > 100 µM | 42.3 µM | – | > 100 µM | > 100 µM | > 100 µM | 41.5 µM
COc1ccc2c(c1)-c1nn(CCN(C)C)c3ccc(C(=O)NCCCN(C)CCCNC(=O)c4ccc5c6c(nn5CCN(C)C)-c5cc(OC)ccc5Nc46)c(c13)N2 | 7.28 µM | 0.141 µM | – | – | 1.11 µM | 3.38 µM | 0.306 µM | – | 0.541 µM | 0.273 µM | 0.689 µM | 0.564 µM
COC(=O)n1c(CBr)c(Br)c2ccccc21 | 47.9 µM | 70.2 µM | – | – | 74.9 µM | 69.9 µM | > 100 µM | > 100 µM | 33.6 µM | 34.5 µM | – | –
CCOC(=O)C(=Cn1c(=S)[nH]c2ccc([N+](=O)[O-])cc21)C(=O)OCC | > 100 µM | > 100 µM | – | – | > 100 µM | > 100 µM | > 100 µM | – | > 100 µM | > 100 µM | > 100 µM | > 100 µM
N#Cc1nc(/C=C/c2ccccc2)oc1N | > 100 µM | > 100 µM | – | – | > 100 µM | > 100 µM | > 100 µM | – | > 100 µM | > 100 µM | > 100 µM | > 100 µM
